Test results: US20050070602A1, “Method of modulating immune response by administration of immuno-activation agent” (priority 2003, published 2005)
Values joined by “and” are separate entries in the source; they are usually repeats but may differ in a detail not shown here. Equal values may be shown once.

How the values were obtained:
prostate cancer cells = settings: earlier report (ref. 12); cited from earlier work
PC-3 cell antigens = assay: Serum antibodies against cultured PC-3 cells, indirect immunofluorescence with flow cytometry; format: in vivo, mice
Experimental: The reaction of serum antibodies from mice on the experimental or control diet with cultured PC-3 cells was analyzed with an indirect immunofluorescent antibody technique. A fluoresecin-labeled goat IgG-(Fab′)2 antibody against mouse Ig was used as the second antibody. PC-3 cells stained with a nonspecific mouse IgG as the first antibody were used as a background. The proportion of the positively stained cells and the mean fluorescence intensity were analyzed with the intensity channel on a flow cytometer.
Mouse sera were incubated with cultured PC-3 cells to detect the presence and reactivity of antibodies against PC-3 antigens using an indirect immunofluorescent antibody technique. The proportion of the positively stained cells and the mean fluorescence intensity were analyzed by a flow cytometric method. […] For example, at the titer of 20, the antisera from mice on experimental diet detected approximately 24-38% cells while approximately 7-16% cells detected with the sera from mice on the control diet.

xenografted PC-3 tumors [1] = assay: Histology and immunohistochemical staining of xenografted tumor tissue for immune cells and bound mouse Ig; format: in vivo, mice
Excerpt: (§1) Five week-old BALB/c (nu/nu) male mice purchased from Charles River Laboratories (Wilmington, Mass.) were housed in a barrier facility with 12-h light/dark cycles; tap water and diets provided ad libitum. They were randomly divided into two groups of nine mice. […] The diets began one week prior to inoculation of PC-3 cells and continued until termination of experiments. The xenografted tumors were established by a single s.c. injection in the flank of 0.8×10^6 PC-3 cells suspended in ice-cold matrigel (sigma). The tumor volumes were measured every 7-8 days and calculated by length×width×height×0.5236. Animal body weights were recorded weekly and at autopsy; food consumption was determined twice per week. Two hours before the mice were euthanized, 5-bromo-2′-deoxyuridine (BrdU) (10 mg/kg body weight) was injected in the peritoneum for in vivo labeling of proliferating cells. At autopsy, xenograft tumors were weighed and frozen in liquid nitrogen or fixed in 10% formalin and embedded in paraffin. The BrdU-labeled cells of paraffin embedded tissues on slides were detected employing a monoclonal anti-BrdU antibody from a BrdU detection kit (Roche Molecular Biochemicals) according to manufacturer's direction. The mean numbers of labeled cells from multiple fields were calculated. The comparisons between control and experimental groups were performed with Student's t test.
The changes of B and NK cells were further examined in the-frozen and paraffin embedded xenografted tumor tissues by for immunohistochemical staining. Mouse B cells were identified with a primary monoclonal rat anti-B220 antibody, and NK cells of immunodeficient mice detected with a rat anti-mouse CD90.2 (18) primary antibody (BD PharMingen). A biotin-conjugated goat anti-rat Ig was used as a secondary antibody, with chromogen color development using an ImmunoCruz Staining System (Santa Cruz Biotechnology). A rat IgG2aK was used as an isotype control. The binding of mouse Ig to xenografted tumor cells was determined by a direct antibody staining method using a biotinylated goat anti-mouse Ig (BD PhaMingen), or an isotype Ig control.

[2] = tested on: B cells and NK cells in the peripheral blood; assay: B and NK cells in peripheral blood by direct fluorescent antibody flow cytometry; format: in vivo, mice
Excerpt: as §1
Monoclonal antibodies against mouse B cell antigen CD19 or against Pan NK cell antigen CD49b were used. A mouse isotype control was used as a background.
The quantities of B cells and NK cells in the peripheral blood of all mice were determined by direct immunofluorescent antibody technique with the flow cytometric method. Monoclonal antibodies against mouse B cell antigen CD19 or against mouse Pan NK cell antigen CD49b were used.

[3] = tested on: human prostate cancer PC-3 cells; assay: Xenograft tumor assay, PC-3 cells in BALB/c (nu/nu) mice; format: in vivo
Excerpt: as §1

xenografted PC-3 tumors [4] = assay: Apoptotic cells in xenografted tumors by TUNEL; format: in vivo, mice; settings: nine weeks PEITC-NAC diet
Experimental: The apoptotic cells of xenografted tumors were determined with paraffin embedded tissue slides by the characteristic nucleus morphology, and by the presence of DNA strand breaks using the terminal deoxynucleotidyl tranferase-mediated biotinylated UTP nick end labeling (TUNEL). An in situ detection kit from Roche Molecular Biochemicals, Indianapolis, Ind. was employed according to manufacturer's direction (17). Multiple fields, but not necrotic tissues, were determined for apoptotic cells.

Rb = assay: Western blot of xenografted tumors: Rb phosphorylation; format: in vivo, human; settings: experimental tumors vs controls
Experimental: (§2) The protein levels of xenografts were determined by Western blot analyses using standard procedures (19). Total proteins were prepared from each group of pooled individual xenografts of equal weight. The tissues were homogenized in the presence of a lysis buffer with protease inhibitors (17) and lysates collected after centrifugation at 4° C. Polyclonal antibodies against human p21^WAF-1/Cip-1, p27^Kip1, cyclin E, and an anti-cyclin D1 cross reactive with cyclins D2 and D3, an anti-Rb reactive with both phosphorylated and non-phosphorylated proteins, and an antibody against intact poly (ADP-ribose) polymerase (PARP) and the 89 kDa fragment were purchased from Santa Cruz Biotechnology. Preferably the endogenous cyclin-dependent kinase inhibitors are p151NK4B, p161NK4A, p181NK4C, p191NK4D, p21WAF-1/Cip-1, p27Kip1 and/or p57 that inhibit cyclin-dependent kinases.

[5] = Excerpt: as §1
PC-3 cells = assay: Cell cycle phases of cultured PC-3 cells by flow cytometry; format: cell-based, human; settings: exposure for 24 hours in cultures
Experimental: The product was crystallized from hexane, and purity established by HPLC, NMR and MS; purity was greater than 98%. A human prostate cancer cell line, androgen-independent PC-3 was used as antigen in this invention. PC-3 cells were seeded at 1.5×10^5 cells/ml in RPMI-1640 containing 15% heat inactivated fetal calf serum with 1% penicillin (10,000 units/ml) and streptomycin (10,000 μg/ml) (15). Cell cycle phase determination was performed using a BD FACScan cytometer according to published procedures (16, 17). The cells were fixed with 80% ethanol at 4° C. and incubated on ice before the DNA was stained with propidium iodide (50 μg/ml).

xenografted PC-3 tumors [6] = assay: Proliferating (BrdU-labeled) and mitotic cells in xenografted tumors; format: in vivo, mice
Excerpt: as §1

cyclin D1 = assay: Western blot of xenografted tumors: cyclin D1; format: in vivo, human; settings: pooled experimental tumors vs controls
Experimental: as §2

[7] = tested on: PARP (poly (ADP-ribose) polymerase); assay: Western blot of PARP cleavage in xenografted tumors; format: in vivo, human; settings: pooled experimental tumors vs control
Experimental: as §2

## CC(=O)N[C@@H](CSC(=S)NCCc1ccccc1)C(=O)O [PEITC-NAC, N-acetylcysteine conjugate of phenethyl isothiocyanate]
Prostate cancer cells
  growth of prostate cancer cells in cultures: significantly inhibited
PC-3 cell antigens; 6 weeks after injection of PC-3 cells, vs basal control diet
  antisera titer against PC-3 cell antigens: higher titer
PC-3 cell antigens; antisera from experimental diet mice vs control mice sera
  mean fluorescence on stained PC-3 cells: significantly more intense
PC-3 cell antigens; serum titer of 20, mice on experimental diet, control diet 7-16%
  PC-3 cells detected by antisera: 24-38%
Xenografted PC-3 tumors [1]; H & E sections, after nine weeks of PEITC-NAC diet, not in control mice
  lymphocytes around tumor nodules: surrounded by aggregates of small lymphocytes
Xenografted PC-3 tumors [1]; immunohistochemical staining, PEITC-NAC treated mice
  NK cell receptor NKG2A/C/E among infiltrating cells: demonstrated among cells infiltrating around the tumor nodules
Xenografted PC-3 tumors [1]; immunohistochemical staining, experimental tumors
  B220 staining of lymphocytes around tumor nodules: great majority of them were B cells bearing marker B220
Xenografted PC-3 tumors [1]; immunohistochemical staining, marker for T and NK cells
  CD90.2 staining of lymphocytes around tumor nodules: Small quantity of lymphocytes stained positive for CD90.2
Xenografted PC-3 tumors [1]; immunoperoxidase staining, experimental but not control tumors
  mouse immunoglobulins bound to xenografted tumor cells: bound mouse immunoglobulins
[2]; average of 3 experimental mice, control average 24.4, PEITC-NAC diet 8 μmol/g
  Mean of NK Cells (%), average of experimental mice: 30.5%
[2]; average of 3 experimental mice, control average 30.5, PEITC-NAC diet 8 μmol/g
  Mean of B Cells (%), average of experimental mice: 42.0%
[2]; individual experimental mice, peripheral blood, CD19, % of total mononuclear cells, PEITC-NAC diet 8 μmol/g of AIN-76A, 30 days, PC-3 xenografted nude mice
  Mean of B Cells (%): 45.8% and 42.1% and 38.3%
[2]; individual experimental mice, peripheral blood, CD49b, % of total mononuclear cells, PEITC-NAC diet 8 μmol/g of AIN-76A, 30 days, PC-3 xenografted nude mice
  Mean of NK Cells (%): 27.6% and 38.0% and 26.0%
[3]; PEITC-NAC diet 8 μmol/g, control 100%
  tumor incidence: 88%
[3]; after inoculation of PC-3 cells, PEITC-NAC diet 8 μmol/g, control 7-10 days
  time for tumors to be palpable: 7 to 22 days
[3]; during study period, P<0.05
  tumor volumes vs control tumors: smaller
[3]; mice fed with PEITC-NAC diet
  mice with tumor inhibition: 100%
Xenografted PC-3 tumors [4]
  elevation of apoptotic rate vs control tumors: approximately two
Xenografted PC-3 tumors [4]; control 14.4%, P=0.02
  average apoptotic rate of tumors: 29.29%
Rb
  Rb phosphorylation: significant reduction of Rb phosphorylation
[5]; PEITC-NAC diet
  daily food consumption, less than control mice: approximately 6.5%
[5]; at autopsy, P>0.13
  average weights of kidneys and spleens vs controls: the difference was not significant
[5]; experimental mice, control mice 21.89 g
  average body weight at termination: 20.93 g
[5]; throughout the study period, PEITC-NAC diet
  behavior of animals: no signs of unusual behavior
PC-3 cells
  cell cycle phases of PC-3 cells: concentration-related reduction of S- and G2M-phases
Xenografted PC-3 tumors [6]; BrdU labeling, tumors at autopsy
  proliferating cells, less than in control mice: approximately 75%
Xenografted PC-3 tumors [6]; tumors from PEITC-NAC fed mice, control greater than five per field
  mitotic figures: three
Cyclin D1
  reduced expression of cyclin D1: 32%
[7]
  cleaved PARP fragments incl. 89 kDa fragment: Significant increase of the cleaved fragments
